# Molecular target: KDM5B (Homo sapiens (Human), UniProt Q9UGL1)
# Assay: KDM5B TR-FRET Enzyme Activity Assay
# Type: biochemical
# Conditions: LANCE TR-FRET; 5 nM full-length recombinant KDM5B; ten point titration 100000 nM to 5.08 nM
# Experimental: KDM5B TR-FRET Enzyme Activity Assay
# KDM5B enzymatic activity was determined with the LANCE (Lanthanide Chelate Excite) TR-FRET (Time-resolved fluorescence resonance energy transfer) assay. […] To each well of a white Greiner 1536 Lumitrac 1536 well-plate, 50 nL of compound (100 fold dilution in final assay volume of 5 μL) was dispensed, followed by the addition of 4 μL of 1× assay buffer (50 mM Hepes 7.3, 0.5 mM TCEP, 0.005% Brij-35, 0.02% BSA, 50 μM Na-L-Ascorbate and 2 μM AmFe(II)Sulfate) containing 5 nM of Full-length KDM5B enzyme (recombinant protein from baculovirus-transfected Sf21 cells: full-length KDM5B; MW=176.825 kDa). Following a 30 minutes compound and enzyme incubation in a humidified chamber, each reaction was initiated by the addition of 1 μL 1× assay buffer containing […] biotinylated H3K4Me3 peptide, and 500 nM α-ketoglutarate. The final reaction in each well of 5 μL consists of 5 nM KDM5B, 500 nM biotinylated-peptide, and 500 nM α-ketoglutarate. De-methylation reactions were allowed to proceed for 60 minutes. Reactions were immediately quenched by the addition of 5 uL of 2× Lance Detection Buffer (PerkinElmer) with 0.5 mM EDTA and 2 nM of Eu-anti-H3K4Me1-2 antibody, and 30 nM of Streptavidin-conjugated Dylight 650 detection reagents. After 60 minutes incubation with detection reagents, reaction plates were read on a PerkinElmer EnVision plate reader using standard TR-FRET protocol. Briefly, excitation of donor molecules (Eu-chelate-anti-H3K4Me1-2-antibody) with a laser light source at 337 nm produces energy that can be transferred to Dylight-650 acceptor molecules if this donor:acceptor pair is within close proximity. Fluorescence intensity at both 665 nm (acceptor) and 615 nm (donor) are measured and a TR-FRET ratio calculated for each well (acceptor intensity/donor intensity). IC50 values were determined by 4 parameter robust fit of TR-FRET ratio values vs. (Log 10) compound concentrations.
# Sequence of KDM5B (Q9UGL1 whole entry): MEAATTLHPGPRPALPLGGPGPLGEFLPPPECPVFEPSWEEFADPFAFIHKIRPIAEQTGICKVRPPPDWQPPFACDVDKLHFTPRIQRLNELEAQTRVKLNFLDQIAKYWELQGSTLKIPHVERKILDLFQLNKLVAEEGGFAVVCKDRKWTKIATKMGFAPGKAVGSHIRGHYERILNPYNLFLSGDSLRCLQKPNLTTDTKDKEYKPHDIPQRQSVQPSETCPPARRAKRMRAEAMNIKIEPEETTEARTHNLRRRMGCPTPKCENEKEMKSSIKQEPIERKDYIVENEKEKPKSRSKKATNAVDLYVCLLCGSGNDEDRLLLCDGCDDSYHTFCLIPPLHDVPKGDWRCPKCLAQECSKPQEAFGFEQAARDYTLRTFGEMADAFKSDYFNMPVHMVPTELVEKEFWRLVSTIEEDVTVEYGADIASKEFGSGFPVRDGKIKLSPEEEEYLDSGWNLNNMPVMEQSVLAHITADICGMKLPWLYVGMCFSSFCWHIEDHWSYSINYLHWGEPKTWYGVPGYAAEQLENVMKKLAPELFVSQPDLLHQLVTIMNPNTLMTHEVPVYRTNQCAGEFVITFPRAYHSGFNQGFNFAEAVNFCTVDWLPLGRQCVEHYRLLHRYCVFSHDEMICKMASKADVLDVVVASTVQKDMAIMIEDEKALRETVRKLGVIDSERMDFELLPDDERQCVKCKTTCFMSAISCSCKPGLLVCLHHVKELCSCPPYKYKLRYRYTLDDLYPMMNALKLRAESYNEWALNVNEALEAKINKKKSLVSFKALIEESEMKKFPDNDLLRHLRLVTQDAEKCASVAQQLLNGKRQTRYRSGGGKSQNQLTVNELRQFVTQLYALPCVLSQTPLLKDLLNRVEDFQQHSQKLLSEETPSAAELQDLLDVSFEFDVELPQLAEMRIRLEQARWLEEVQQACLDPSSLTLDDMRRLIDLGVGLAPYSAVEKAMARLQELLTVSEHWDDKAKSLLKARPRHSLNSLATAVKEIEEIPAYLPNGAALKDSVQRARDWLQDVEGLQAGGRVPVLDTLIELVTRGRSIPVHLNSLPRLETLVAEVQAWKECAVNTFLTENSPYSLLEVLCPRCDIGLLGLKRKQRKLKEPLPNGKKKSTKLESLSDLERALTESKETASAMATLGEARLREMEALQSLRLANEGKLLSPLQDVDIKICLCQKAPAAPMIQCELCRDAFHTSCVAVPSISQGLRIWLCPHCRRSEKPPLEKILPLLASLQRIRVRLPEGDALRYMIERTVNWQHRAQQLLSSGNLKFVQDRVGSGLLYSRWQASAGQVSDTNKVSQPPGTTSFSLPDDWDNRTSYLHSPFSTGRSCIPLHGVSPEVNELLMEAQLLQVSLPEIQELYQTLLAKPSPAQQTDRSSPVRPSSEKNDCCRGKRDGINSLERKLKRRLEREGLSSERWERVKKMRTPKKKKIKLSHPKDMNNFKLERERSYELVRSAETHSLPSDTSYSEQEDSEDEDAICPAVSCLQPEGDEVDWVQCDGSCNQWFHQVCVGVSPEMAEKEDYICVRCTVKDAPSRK
row,IC50,SMILES
1,26.4 µM,"Cc1cc(=O)n2ncnc2[nH]1 [Example 8-4, 5-methyl-[1,2,4]triazolo[1,5-a]pyrimidin-7(4H)-one]"
2,0.061 µM,"CC(C)c1c(-c2cc(C(C)(C)C)n[nH]2)[nH]c2ncnn2c1=O [Example 11-135, 5-(3-tert-butyl-1H-pyrazol-5-yl)-6-(1-methylethyl)[1,2,4]triazolo[1,5-a]pyrimidin-7(4H)-one]"
3,0.0463 µM,"CC(C)c1c(-c2cccc(N3CCOCC3)c2)[nH]c2ncnn2c1=O [Example 11-44, 6-(1-methylethyl)-5-(3-morpholin-4-ylphenyl)[1,2,4]triazolo[1,5-a]pyrimidin-7(4H)-one]"
4,0.02 µM,"CC(C)c1c(-c2cnc3[nH]ccc3c2)[nH]c2ncnn2c1=O [Example 11-68, 6-(1-methylethyl)-5-(1H-pyrrolo[2,3-b]pyridin-5-yl)[1,2,4]triazolo[1,5-a]pyrimidin-7(4H)-one]"
5,0.00627 µM,"CCn1cc(-c2[nH]c3ncnn3c(=O)c2C(C)C)cn1 [Example 11-19, 5-(1-ethyl-1H-pyrazol-4-yl)-6-(1-methylethyl)[1,2,4]triazolo[1,5-a]pyrimidin-7(4H)-one]"
6,0.0225 µM,"CC(C)c1c(-c2cncc(CO)c2)[nH]c2ncnn2c1=O [Example 12-3, 5-[5-(hydroxymethyl)pyridin-3-yl]-6-(1-methylethyl)[1,2,4]triazolo[1,5-a]pyrimidin-7(4H)-one]"
7,0.00508 µM,"CC(C)c1c(-c2cnn(CC3(F)CCCC3)c2)[nH]c2ncnn2c1=O [Example 11-13, 5-{1-[(1-fluorocyclopentyl)methyl]-1H-pyrazol-4-yl}-6-(1-methylethyl)[1,2,4]triazolo[1,5-a]pyrimidin-7(4H)-one]"
8,0.00647 µM,"CC(C)c1c(-c2cnn(-c3ccc(F)cc3)c2)[nH]c2ncnn2c1=O [Example 11-17, 5-[1-(4-fluorophenyl)-1H-pyrazol-4-yl]-6-(1-methylethyl)[1,2,4]triazolo[1,5-a]pyrimidin-7(4H)-one]"
9,0.0201 µM,"CC(C)c1c(-c2cnn3ncccc23)[nH]c2ncnn2c1=O [Example 11-72, 6-(1-methylethyl)-5-pyrazolo[1,5-b]pyridazin-3-yl[1,2,4]triazolo[1,5-a]pyrimidin-7(4H)-one]"
10,3.33 µM,"Cn1cc(-c2cc(=O)n3ncnc3[nH]2)cn1 [Example 8-31, 5-(1-methyl-1H-pyrazol-4-yl)[1,2,4]triazolo[1,5-a]pyrimidin-7(4H)-one]"
11,0.0471 µM,"CC(C)c1c(-c2cccnc2)[nH]c2ncnn2c1=O [Example 11-25, 6-(1-methylethyl)-5-pyridin-3-yl[1,2,4]triazolo[1,5-a]pyrimidin-7(4H)-one]"
12,0.0116 µM,"CC(C)c1c(-c2ccc(N3CCOCC3)nc2)[nH]c2ncnn2c1=O [Example 11-127, 6-(1-methylethyl)-5-(6-morpholin-4-ylpyridin-3-yl)[1,2,4]triazolo[1,5-a]pyrimidin-7(4H)-one]"
13,0.0277 µM,"COC/C=C/c1[nH]c2ncnn2c(=O)c1C(C)C [Example 11-23, 5-[(1E)-3-methoxyprop-1-en-1-yl]-6-(1-methylethyl)[1,2,4]triazolo[1,5-a]pyrimidin-7(4H)-one]"
14,0.00878 µM,"CC(C)c1c(-c2ccc(-n3cccn3)cc2)[nH]c2ncnn2c1=O [Example 11-82, 6-(1-methylethyl)-5-[4-(1H-pyrazol-1-yl)phenyl][1,2,4]triazolo[1,5-a]pyrimidin-7(4H)-one]"
15,0.00693 µM,"CC(C)c1c(-c2ccc3c(c2)CC(=O)N3)[nH]c2ncnn2c1=O [Example 11-123, 6-(1-methylethyl)-5-(2-oxo-2,3-dihydro-1H-indol-5-yl)[1,2,4]triazolo[1,5-a]pyrimidin-7(4H)-one]"
16,37.6 µM,"CCCc1[nH]c2ncnn2c(=O)c1-c1ccccc1 [Example 8-32, 6-phenyl-5-propyl[1,2,4]triazolo[1,5-a]pyrimidin-7(4H)-one]"
17,0.772 µM,"CC(C)(C)c1c(-c2cnn(-c3ccccc3)c2)[nH]c2ncnn2c1=O [Example 11-7, 6-tert-butyl-5-(1-phenyl-1H-pyrazol-4-yl)[1,2,4]triazolo[1,5-a]pyrimidin-7(4H)-one]"
18,0.00859 µM,"CC(C)c1c(-c2ccc(-n3ccnn3)cc2)[nH]c2ncnn2c1=O [Example 11-95, 6-(1-methylethyl)-5-[4-(1H-1,2,3-triazol-1-yl)phenyl][1,2,4]triazolo[1,5-a]pyrimidin-7(4H)-one]"
19,0.00508 µM,"CC(C)Cn1cc(-c2[nH]c3ncnn3c(=O)c2C(C)C)cn1 [Example 11-12, 6-(1-methylethyl)-5-[1-(2-methylpropyl)-1H-pyrazol-4-yl][1,2,4]triazolo[1,5-a]pyrimidin-7(4H)-one]"

row,IC50,SMILES
1,0.00893 µM,"CC(C)c1c(-c2cccc(CC#N)c2)[nH]c2ncnn2c1=O [Example 11-66, {3-[6-(1-methylethyl)-7-oxo-4,7-dihydro[1,2,4]triazolo[1,5-a]pyrimidin-5-yl]phenyl}acetonitrile]"
2,0.271 µM,"CC(C)c1c(-c2ccccc2)[nH]c2ncnn2c1=O [Example 8-35, 6-(1-methylethyl)-5-phenyl[1,2,4]triazolo[1,5-a]pyrimidin-7(4H)-one]"
3,0.0747 µM,"CC(C)c1c(-c2cccc(N3CCCCC3)c2)[nH]c2ncnn2c1=O [Example 11-42, 6-(1-methylethyl)-5-(3-piperidin-1-ylphenyl)[1,2,4]triazolo[1,5-a]pyrimidin-7(4H)-one]"
4,0.00857 µM,"CC(C)c1c(-c2ccc(-c3ccncc3)cc2)[nH]c2ncnn2c1=O [Example 11-88, 6-(1-methylethyl)-5-(4-pyridin-4-ylphenyl)[1,2,4]triazolo[1,5-a]pyrimidin-7(4H)-one]"
5,0.0419 µM,"CC(C)c1c(-c2csc(-n3cccn3)n2)[nH]c2ncnn2c1=O [Example 11-137, 6-(1-methylethyl)-5-[2-(1H-pyrazol-1-yl)-1,3-thiazol-4-yl][1,2,4]triazolo[1,5-a]pyrimidin-7(4H)-one]"
6,0.0715 µM,"CC(C)c1c(-c2ccc(Cl)cc2)[nH]c2ncnn2c1=O [Example 11-63, 5-(4-chlorophenyl)-6-(1-methylethyl)[1,2,4]triazolo[1,5-a]pyrimidin-7(4H)-one]"
7,0.444 µM,"Cc1nc(-c2ccccc2)sc1-c1[nH]c2ncnn2c(=O)c1C(C)C [Example 11-116, 6-(1-methylethyl)-5-(4-methyl-2-phenyl-1,3-thiazol-5-yl)[1,2,4]triazolo[1,5-a]pyrimidin-7(4H)-one]"
8,0.155 µM,"Cc1[nH]ncc1-c1[nH]c2ncnn2c(=O)c1C(C)C [Example 11-28, 6-(1-methylethyl)-5-(5-methyl-1H-pyrazol-4-yl)[1,2,4]triazolo[1,5-a]pyrimidin-7(4H)-one]"
9,0.904 µM,"CC(C)c1c(-c2ccnc3ccccc23)[nH]c2ncnn2c1=O [Example 11-75, 6-(1-methylethyl)-5-quinolin-4-yl[1,2,4]triazolo[1,5-a]pyrimidin-7(4H)-one]"
10,0.00696 µM,"CC(C)c1c(-c2cnn(CCN3CCOCC3)c2)[nH]c2ncnn2c1=O [Example 11-52, 6-(1-methylethyl)-5-[1-(2-morpholin-4-ylethyl)-1H-pyrazol-4-yl][1,2,4]triazolo[1,5-a]pyrimidin-7(4H)-one]"
11,0.0438 µM,"CNc1ccc(-c2[nH]c3ncnn3c(=O)c2C(C)C)cc1 [Example 11-104, 5-[4-(methylamino)phenyl]-6-(1-methylethyl)[1,2,4]triazolo[1,5-a]pyrimidin-7(4H)-one]"
12,0.00583 µM,"CC(C)c1c(-c2cnn(Cc3ccccn3)c2)[nH]c2ncnn2c1=O [Example 11-39, 6-(1-methylethyl)-5-[1-(pyridin-2-ylmethyl)-1H-pyrazol-4-yl][1,2,4]triazolo[1,5-a]pyrimidin-7(4H)-one]"
13,0.00508 µM,"CC(C)c1c(-c2cnn(C3CCC3)c2)[nH]c2ncnn2c1=O [Example 11-109, 5-(1-cyclobutyl-1H-pyrazol-4-yl)-6-(1-methylethyl)[1,2,4]triazolo[1,5-a]pyrimidin-7(4H)-one]"
14,0.00752 µM,"CC(C)c1c(-c2ccc(N3CCOCC3)cc2)[nH]c2ncnn2c1=O [Example 11-10, 6-(1-methylethyl)-5-(4-morpholin-4-ylphenyl)[1,2,4]triazolo[1,5-a]pyrimidin-7(4H)-one]"
15,21.8 µM,"CCc1cc(=O)n2ncnc2[nH]1 [Example 8-9, 5-ethyl-[1,2,4]triazolo[1,5-a]pyrimidin-7(4H)-one]"
16,0.0751 µM,"CC(C)c1c(-c2cnn3c2CCCC3)[nH]c2ncnn2c1=O [Example 11-53, 6-(1-methylethyl)-5-(4,5,6,7-tetrahydropyrazolo[1,5-a]pyridin-3-yl)[1,2,4]triazolo[1,5-a]pyrimidin-7(4H)-one]"
17,18.9 µM,"O=c1cc(-c2ccncc2)[nH]c2ncnn12 [Example 8-22, 5-pyridin-4-yl[1,2,4]triazolo[1,5-a]pyrimidin-7(4H)-one]"
18,5.4 µM,"CC(C)(C)c1c(-c2ccc(F)cc2)[nH]c2ncnn2c1=O [Example 11-5, 6-tert-butyl-5-(4-fluorophenyl)[1,2,4]triazolo[1,5-a]pyrimidin-7(4H)-one]"
